The text below walks through data of patent publication US20080207759A1, “METHOD FOR PROTECTING MITOCHONDRIA” (SUCAMPO AG, priority 2007, published 2008).

No end group written: not given here.

Assay [1] relates to human pulmonary artery smooth muscle cells (PASMC). In words: ET-1 induced loss of mitochondrial membrane potential (JC-1 fluorescence). It counts as cell-based. Here is the method:
Human pulmonary Artery Smooth Muscle cells (PASMC) were grown to confluence on 10×22 mm glass cover slips in Clonetics smooth muscle basal media supplemented with growth hormones and fetal bovine serum. The cells on glass cover slips were then placed in 3 ml Hank's Balanced Salt Solution (HBSS) supplemented with […] of the mitochondrial dye JC-1 and incubated at 37° C. for 30 minute. The cells on the cover slips were then washed with 3 ml HBSS and mounted in a cuvette in a spectrofluorimeter with 3 ml HBSS. The emission spectra with excitation at 490 nm were taken over the range of 520 nm to 620 nm (150 sec). […] (0.1% acetone) FCCP, which leads complete depolarization of the mitochondrial membrane potential, was added at the end of each experiment. The spectra were normalized by dividing them by the fluorescence at 570 nm. The value obtained after FCCP treatment was assigned a value of 0 mV and the individual FCCP ratio was subtracted from each ratio point. The control (JC-1) fluorescence ratio was then assigned a value of +224 mV and the membrane potential [DmH(mV)] for each experimental point were calculated accordingly.
The cells were treated with 0.1% DMSO (vehicle for Compound 1), 1 nM Endothelin-1 (ET-1) or 1 nM ET-1 and 100 nM Compound 1 and scans were taken after 10, 30 and 60 minutes of the incubation. FCCP was added at the end and incubated for 60 minutes before taking scan. N=5 cover slips for all conditions.
The cells were treated with 0.1% DMSO or 1 nm Endothelin-1 (ET-1) and scans were taken after 30 minutes of incubation. The medium was then removed by washing the cells with fresh HBSS and scans were taken after 30 minutes. FCCP was added to the dish at the end and incubated for 60 minutes before taking scan. N=5 cover slips. In other set of 5 cover slips 1 nM Endothelin-1 (ET-1) and 100 nM Compound 1 were added and scans were taken after 30 minutes of incubation. The medium was then removed by washing the cells with fresh HBSS and 100 nM Compound 1 was added on top of it. Scans were taken after 30 minutes. FCCP was added at the end and incubated for 60 minutes before taking scan. N=3 cover slips.
The cells were treated with 1 nM Endothelin-1 (ET-1) and scans were taken after 30 minutes of incubation. The medium was then removed by washing the cells with fresh HBSS and HBSS supplemented with 100 nM Compound 1 was added to the cells. Scans were taken after 30 minutes. FCCP was added at the end and incubated for 60 minutes before taking scan. N=5 cover slips for all conditions.

Assay [2] concerns Human lung alveolar type II cells (A549). In words: Cytochrome c translocation into the cytosol induced by cigarette smoke extract (cytochrome c ELISA). Format: cell-based. The conditions noted are these: 100 nM Compound A with 1%, 2.5% or 5% CSE, 24 hrs. The procedure:
Smoke from 8 cigarettes were bubbled slowly through 100 ml of serum free culture medium and the resulting suspension was filtered through 0.20 μm filter. The solution was considered as 100% cigarette smoke extract (CSE). Human lung alveolar type II cells (A549) were seeded 1.5×10^5 cells per well in a 96 well plate and incubated for 48 hrs. The cells were then treated separately with either 100 nM Compound A (13,14-dihydro-15-keto-16,16-difluoro-18(S)-methyl-PGE1) or 1%, 2.5% and 5% CSE. In other sets, 100 nM Compound A was added along with 1%, 2.5% or 5% CSE. All incubations were done at 37° C. for 24 hrs. After 24 hr treatment, the cells were washed with 0-4° C. PBS three times. Measurement of cytochrome c that was translocated into the cytosol, a marker of cellular injury, was performed with a cytochrome c ELISA assay kit according to the instructions provided with the kit.

With `CCCCC(F)(F)C(=O)CCC1CCC(=O)C1CCCCCCC(=O)O` (stereo not shown) [Compound 1, 11-deoxy-13,14-dihydro-15-keto-16,16-difluoro-PGE1], in assay [1] (100 nM Compound 1 with 1 nM ET-1, 10, 30 and 60 min), the “protection against ET-1 induced loss of membrane potential (in words)” value is reported as “protects against ET-1 induced loss of membrane potential at all times tested”. Besides, the mitochondrial membrane potential in assay [1] (Example 1-2, 1 nM ET-1 along with 100 nM Compound 1, 30 min) was 137.1±4.7 mV; in assay [1] (Example 1-2, after removal of ET-1 with continued 100 nM Compound 1, further 30 min), 115.3±2.3 mV; in assay [1] (PASMC, 1 nM ET-1 and 100 nM Compound 1, 10 min, control taken as 224 mV), 114.2±2.6 mV; in assay [1] (PASMC, 1 nM ET-1 and 100 nM Compound 1, 30 min, control taken as 224 mV), 104.02±5.0 mV; in assay [1] (PASMC, 1 nM ET-1 and 100 nM Compound 1, 60 min, control taken as 224 mV), 73.1±2.4 mV. Besides, the “mitochondrial membrane potential (rescue)” value in assay [1] (Example 1-3, ET-1 30 min, then ET-1 removed and 100 nM Compound 1 added, 30 min) is 77.2±2.7 mV.
In the case of `CC[C@H](C)CC(F)(F)C(=O)CC[C@H]1[C@H](O)CC(=O)[C@@H]1CCCCCCC(=O)O` [Compound A, 13,14-dihydro-15-keto-16,16-difluoro-18(S)-methyl-PGE1], the “cytochrome c translocation by CSE (in words)” value in assay [2] is recorded as “protected against cytochrome c translocation by CSE”.
“Endothelin-1 (CSCSSLMDKECVYFCHLDIIW; ends and bridges not checked; cysteine pairing not given here; UniProt P05305 53-73, looked up) [ET-1, reference compound]”: the mitochondrial membrane potential in assay [1] (Example 1-2, ET-1 30 min, then ET-1 removed, scan after 30 min) came out at 49.3±2.2 mV; in assay [1] (Examples 1-2 and 1-3, ET-1 alone, 30 min), 50.3±5.6 mV; in assay [1] (PASMC, 1 nM ET-1 alone, 10 min, control taken as 224 mV), 54.5±4.3 mV; in assay [1] (PASMC, 1 nM ET-1 alone, 30 min (Example 1-1), control taken as 224 mV) it was 28.0±2.8 mV; in assay [1] (PASMC, 1 nM ET-1 alone, 60 min, control taken as 224 mV), 13.1±1.0 mV.
